According to PMC11788324, “4,6-Disubstituted pyrimidine-based microtubule affinity-regulating kinase 4 (MARK4) inhibitors: synthesis, characterization, in-vitro activity and in-silico studies” (Frontiers in Pharmacology, 2025):

Legend:
MARK4 [1] = target: T1, MARK4 (Homo sapiens, UniProt Q96L34); experiment: MARK4 ATPase (malachite green) enzyme inhibition assay; assay type: biochemical; conditions: MARK4 5 μM, 1 hour at 25°C, triplicates
T1 sequence (Q96L34 1-752): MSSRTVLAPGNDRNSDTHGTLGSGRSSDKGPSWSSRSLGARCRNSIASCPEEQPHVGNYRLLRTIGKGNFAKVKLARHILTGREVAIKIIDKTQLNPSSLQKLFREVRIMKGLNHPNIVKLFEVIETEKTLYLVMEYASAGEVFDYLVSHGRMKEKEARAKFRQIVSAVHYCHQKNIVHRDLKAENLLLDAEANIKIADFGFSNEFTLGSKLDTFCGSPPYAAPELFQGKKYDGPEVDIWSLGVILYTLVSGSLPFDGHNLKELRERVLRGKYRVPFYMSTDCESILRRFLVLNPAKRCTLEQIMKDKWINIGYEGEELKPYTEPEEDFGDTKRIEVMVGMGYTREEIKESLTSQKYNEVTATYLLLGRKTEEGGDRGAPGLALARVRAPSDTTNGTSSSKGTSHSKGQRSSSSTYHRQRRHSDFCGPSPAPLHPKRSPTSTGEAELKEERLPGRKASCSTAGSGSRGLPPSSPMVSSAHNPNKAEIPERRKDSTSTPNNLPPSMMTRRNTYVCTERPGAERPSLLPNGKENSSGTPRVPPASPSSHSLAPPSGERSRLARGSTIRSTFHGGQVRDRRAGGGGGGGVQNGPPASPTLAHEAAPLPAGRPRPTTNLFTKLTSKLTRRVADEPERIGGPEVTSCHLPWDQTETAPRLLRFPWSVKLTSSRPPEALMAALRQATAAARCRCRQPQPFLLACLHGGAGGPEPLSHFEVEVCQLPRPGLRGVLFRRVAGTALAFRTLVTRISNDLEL
Experimental: The inhibitory potential of the synthesized compounds against MARK4 was analysed using the malachite green based enzyme inhibition assay. The malachite green kinase inhibition assay is a colorimetric technique designed to assess kinase activity by detecting the release of inorganic phosphate (Pi) during phosphorylation. When a kinase transfers a phosphate group from ATP to its substrate, Pi is generated as a byproduct. The malachite green reagent interacts with Pi to produce a green-colored complex, which can be quantified using a spectrophotometer. This assay is modified to evaluate enzyme inhibition by measuring the reduction in Pi release in the presence of potential inhibitors. […] The protein’s highest activity, MARK4 (ligand-free), was utilised as a reference, and various ligand concentrations were added to determine the IC50 value. […] Finally 96 well plates were filled with 100 μL of the reaction mixture, which was then scanned at 620 nm using a multiscan ELISA reader. […]
MARKs, or microtubule-affinity regulating kinases, are a group of serine/threonine kinases found in mammals and other organisms ([Naz et al., 2013]). […] In the present study, we selected MARK4 as the target and assessed our compounds against it. […] Following this, attempts have been made to collect the fluorescence quenching of MARK4 in the presence of the best inhibitor (14). […]

MARK4 [2] = target: T1, MARK4; experiment: Fluorescence quenching of MARK4; assay type: binding; conditions: data not included
Excerpt: MARKs, or microtubule-affinity regulating kinases, are a group of serine/threonine kinases found in mammals and other organisms ([Naz et al., 2013]). These kinases play a critical role in phosphorylating microtubule-associated proteins, which then go on to regulate important processes like cell cycle progression and cytoskeletal dynamics. These kinases are quite abundant in the human brain and are known to be key players in the development and progression of various diseases including cancer and ADs ([Alam et al., 2023]). Despite their high importance, there has been limited research on the development of synthetic small molecules (inhibitors) against MARK4 ([Li et al., 2020]; [Voura et al., 2022]). In the present study, we selected MARK4 as the target and assessed our compounds against it. The kinase inhibitory potential of the compounds against MARK4 was examined using an ATPase inhibition assay ([Yousuf et al., 2015]; [Yousuf et al., 2022]). […] Following this, attempts have been made to collect the fluorescence quenching of MARK4 in the presence of the best inhibitor (14). […] The rationale behind the behaviour is currently under investigation.

[3] = parameters: method as in Pant et al., 2024; conditions: compared with donepezil; ref Pant et al., 2024; cited from earlier work

| IC50 (MARK4 [1]) | fluorescence quenching of MARK4 emission (MARK4 [2]) | SMILES | neuroprotective effects [3] |
| --- | --- | --- | --- |
| 13 ± 0.63 µM |  | COc1ccc(S(=O)(=O)N2CCN(c3cc(-c4ccsc4)ncn3)CC2)c(OC)c1 [Compound 9, 4-(4-((2,4-Dimethoxyphenyl)-sulfonyl)-piperazin-1-yl)-6-(thiophen-3-yl)-pyrimidine] |  |
| 7.52 ± 0.33 µM | did not show appreciable quenching | O=S(=O)(c1cccc2ccccc12)N1CCN(c2cc(-c3ccsc3)ncn2)CC1 [Compound 14, 4-(4-(Naphthalen-1-ylsulfonyl)-piperazin-1-yl)-6-(thiophen-3-yl)-pyrimidine] |  |
|  |  | Clc1ccc(Cc2ccnc(CCN3CCCCC3)n2)cc1 [a] | neuroprotective effects better than donepezil |
